The target in test [1] is T1, NAD-dependent protein deacetylase sirtuin-2 (Homo sapiens, UniProt Q8IXJ6).
T1 sequence (Q8IXJ6 whole entry): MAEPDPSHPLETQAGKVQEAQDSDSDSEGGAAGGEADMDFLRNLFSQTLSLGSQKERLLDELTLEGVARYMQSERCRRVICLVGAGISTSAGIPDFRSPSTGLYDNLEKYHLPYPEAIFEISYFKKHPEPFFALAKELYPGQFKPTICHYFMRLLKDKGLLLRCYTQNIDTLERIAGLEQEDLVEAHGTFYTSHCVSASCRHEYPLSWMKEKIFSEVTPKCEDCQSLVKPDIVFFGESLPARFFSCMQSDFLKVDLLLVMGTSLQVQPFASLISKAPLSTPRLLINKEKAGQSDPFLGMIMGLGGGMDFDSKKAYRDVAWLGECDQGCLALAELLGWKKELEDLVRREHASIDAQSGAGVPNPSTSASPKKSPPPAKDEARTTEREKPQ
Kind of test: Inhibition of His6-tagged/TEV fused SIRT2 (unknown origin) expressed in Escherichia coli BL21 (DE3) preincubated for 15 mins followed by NAD+ addition and measured after 30 mins by FLucK529Ac based luminescence assay.

Test [2] addresses T2, NAD-dependent protein deacetylase sirtuin-3, mitochondrial (Homo sapiens, UniProt Q9NTG7).
T2 sequence (Q9NTG7 whole entry): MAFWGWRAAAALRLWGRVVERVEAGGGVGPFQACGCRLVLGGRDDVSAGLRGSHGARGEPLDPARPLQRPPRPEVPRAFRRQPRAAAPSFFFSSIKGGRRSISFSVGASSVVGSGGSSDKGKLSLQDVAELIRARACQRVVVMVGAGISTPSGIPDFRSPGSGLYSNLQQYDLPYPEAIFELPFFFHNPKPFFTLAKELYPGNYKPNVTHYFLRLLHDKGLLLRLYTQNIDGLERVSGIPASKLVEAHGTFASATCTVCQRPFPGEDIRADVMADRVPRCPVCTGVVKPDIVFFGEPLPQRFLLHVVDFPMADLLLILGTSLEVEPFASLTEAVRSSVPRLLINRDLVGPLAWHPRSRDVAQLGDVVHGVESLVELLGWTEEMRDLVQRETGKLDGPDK
Kind of test: Inhibition of His6-tagged/TEV fused SIRT3 (unknown origin) expressed in Escherichia coli BL21 (DE3) preincubated for 15 mins followed by NAD+ addition and measured after 30 mins by FLucK529Ac based luminescence assay.

Test [3] deals with T3, NAD-dependent protein deacetylase sirtuin-1 (Homo sapiens, UniProt Q96EB6).
T3 sequence (Q96EB6 whole entry): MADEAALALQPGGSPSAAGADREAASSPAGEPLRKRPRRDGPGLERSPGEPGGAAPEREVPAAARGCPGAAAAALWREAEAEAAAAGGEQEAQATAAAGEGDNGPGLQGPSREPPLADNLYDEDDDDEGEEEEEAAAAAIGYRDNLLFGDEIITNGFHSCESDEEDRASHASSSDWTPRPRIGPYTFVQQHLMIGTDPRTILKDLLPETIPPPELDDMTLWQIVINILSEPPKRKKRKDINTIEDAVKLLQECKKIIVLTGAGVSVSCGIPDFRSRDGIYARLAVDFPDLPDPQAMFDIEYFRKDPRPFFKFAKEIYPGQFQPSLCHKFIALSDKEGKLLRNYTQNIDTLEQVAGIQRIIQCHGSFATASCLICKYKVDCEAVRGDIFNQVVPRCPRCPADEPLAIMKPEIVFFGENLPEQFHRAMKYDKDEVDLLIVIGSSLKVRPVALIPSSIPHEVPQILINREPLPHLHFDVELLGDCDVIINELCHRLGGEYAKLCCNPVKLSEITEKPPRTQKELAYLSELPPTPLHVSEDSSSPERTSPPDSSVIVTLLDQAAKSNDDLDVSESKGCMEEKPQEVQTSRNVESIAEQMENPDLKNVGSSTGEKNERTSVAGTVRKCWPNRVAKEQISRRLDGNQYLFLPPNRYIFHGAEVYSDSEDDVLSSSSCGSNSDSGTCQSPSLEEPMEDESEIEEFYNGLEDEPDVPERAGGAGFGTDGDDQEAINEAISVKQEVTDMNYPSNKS
Description: Inhibition of His6-tagged SIRT1 (unknown origin) expressed in Escherichia coli BL21 (DE3) preincubated for 15 mins followed by NAD+ addition and measured after 30 mins by FLucK529Ac based luminescence assay

In test [4] the target is T3, NAD-dependent protein deacetylase sirtuin-1. This is another data set of the same source.
Description: Uncompetitive inhibition of His6-tagged SIRT1 (unknown origin) expressed in Escherichia coli BL21 (DE3) assessed as inhibition constant measured every 2 mins for 30 mins in presence of NAD+ and ATP by FLucK549Ac based Michaelis-Menten analysis

Consider 17 molecules from ChEMBL document CHEMBL4834428 (J Med Chem, 2021).

Molecules are shown by their SMILES.

`N#Cc1ccccc1CN1CC(C(N)=O)Oc2ccccc21` (stereo in doubt; 4.27): the IC50 is 37.7 µM in test [1], > 60 µM in test [2] and 0.22 µM in test [3]. The molecule also gave a Ki in test [4] of 0.4 µM.

With `NC(=O)C1CN(Cc2cccc([N+](=O)[O-])c2)c2ccccc2O1` (configuration not stated), the IC50 was 4.19 µM in test [1], > 60 µM in test [2] and 0.23 µM in test [3].

In the case of `Cc1cccc(C)c1CN1CC(C(N)=O)Oc2ccccc21` (configuration not stated), the IC50 in test [1] is > 60 µM; in test [2] it was > 60 µM; in test [3], 37.4 µM.

In the case of `NC(=O)C1CNc2ccccc2O1` (configuration not stated), the IC50 in test [1], in test [2] and in test [3] was > 60 µM each time.

`N#Cc1ccccc1CN1CC(C(N)=O)Oc2ccccc21` (stereo in doubt; form 1): the IC50 in test [1] is 47.3 µM; in test [2], > 60 µM; in test [3], 47.3 µM.

As for `NC(=O)C1CN(Cc2ccc3nonc3c2)c2ccccc2O1` (configuration not stated), the IC50 in test [1] was 0.6 µM; in test [2] it was > 60 µM; in test [3], > 60 µM.

Consider `NC(=O)C1CN(Cc2ccccc2C(=O)O)c2ccccc2O1` (configuration not stated), for which the IC50 is > 60 µM in test [1], > 60 µM in test [2] and 13.9 µM in test [3].

In the case of `NC(=O)C1CN(C(=O)c2ccccc2)c2ccccc2O1` (configuration not stated), the IC50 in test [1], in test [2] and in test [3] was > 60 µM each time.

As to `CCOC(=O)C1CN(Cc2ccccc2)c2ccccc2O1` (configuration not stated), the IC50 in test [1], in test [2] and in test [3] was > 60 µM each time.

As for `NC(=O)C1CN(Cc2ccccc2)c2ccccc2O1` (configuration not stated), the IC50 in test [1] is > 60 µM; in test [2], > 60 µM; in test [3], 8.54 µM.

In the case of `CC(C)(C)OC(=O)Nc1nc(CN2CC(C(N)=O)Oc3ccccc32)cs1` (configuration not stated), the figures for the IC50 in test [1], in test [2] and in test [3] were > 60 µM, > 60 µM and 5.63 µM, respectively.

Regarding `CC(=O)Nc1ccccc1CN1CC(C(N)=O)Oc2ccccc21` (configuration not stated), the IC50 in test [1] was > 60 µM; in test [2] it was > 60 µM; in test [3], 31.6 µM.

With `Cc1ccc(NC(=O)N2CC(C(N)=O)Oc3ccccc32)cc1` (configuration not stated), the IC50 in test [1], in test [2] and in test [3] was > 60 µM in each case.

`NC(=O)C1CN(Cc2ccccc2I)c2ccccc2O1` (configuration not stated): the IC50 was > 60 µM in test [1], > 60 µM in test [2] and 0.47 µM in test [3].

On to `CC(=O)Nc1ccc(CN2CC(C(N)=O)Oc3ccccc32)cc1` (configuration not stated), for which the IC50 was > 60 µM in test [1], > 60 µM in test [2] and 10.4 µM in test [3].

Turning to `NC(=O)C1CN(Cc2ccc(-c3ccccc3)cc2)c2ccccc2O1` (configuration not stated), the IC50 in test [1], in test [2] and in test [3] was > 60 µM each time.

For the molecule `NC(=O)C1CN(Cc2ccccc2Br)c2ccccc2O1` (configuration not stated), the IC50 in test [1] was 16.6 µM; in test [2], > 60 µM; in test [3], 0.56 µM.

One may read the IC50 as the concentration that gives 50% inhibition. Read a low IC50 as inhibition by little substance. The Ki is a measure of affinity in units of concentration, obtained from inhibition or displacement. Read a high Ki as a looser hold on the target.
